# Reference: US6710165B2, “IgE-dependent histamine-releasing factor-binding peptides” (priority 2000, dated 2004)
# How the values were obtained:
# malaria protein HRF = malaria protein HRF (Plasmodium falciparum, UniProt Q8I3Z5); conditions: cited from earlier work
# RBL-2H3 cells = assay: Inhibition of histamine release by HRF (RIA); assay type: cell-based; conditions: for effect on histamine release by HRF: peptide 20 μg/ml, HRF 20 μg/ml
# Description: The full-length rat HRF sequence (Chitpatima, et al., 1988) amplified by PCR was cloned in pRSET-A vector and overexpressed in E. coli. The expressed recombinant protein was purified by His-bound Ni column (Novagen) and used for the stimulation of RBL-2H3 cells. RBL-2H3 cells were grown in 24-well plate at 1×10^6 cells, sensitized with rat IgE antibodies (0.2 μg/ml, Serotec) for 45˜60 minutes and then, treated with 20 μg/ml of the recombinant HRF protein (positive control). The cells as prepared above were dose-dependently treated with heptamer peptides p1 and p2. Also, they were treated with the recombinant HRF protein and peptides p1, p2, p4 and m1 to m7 at the same concentration as that of HRF, i.e. 20 μg/ml, respectively,
# The obtained sample was prepared to acylated histamine using RIA-analysis kit (Immunotech, France) and then, competitively bound to ^125I-acylated histamine and monoclonal antibodies. This sample was reanalyzed in γ-counter.
# HRF = target: T1, HRF (Rattus norvegicus, UniProt P63029); assay: Competition binding assay of synthetic peptides against phage clones; conditions: for binding site on HRF, competitive binding analysis on ph2: competition with ph2; for competition of synthetic peptide with phage clones for HRF: peptide 0.001-1000 nM, phage 1/25-fold diluted
# T1 construct: His tag (pRSET-A); made in house; host or cells: E. coli
# T1 sequence (P63029 1-172): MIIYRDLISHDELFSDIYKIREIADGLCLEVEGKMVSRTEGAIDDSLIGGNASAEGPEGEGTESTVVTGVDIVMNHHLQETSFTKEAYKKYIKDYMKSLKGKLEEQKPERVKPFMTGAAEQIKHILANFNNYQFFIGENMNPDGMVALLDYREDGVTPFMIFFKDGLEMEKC
# Description: Also, as a negative control, random peptide (ran, amino acid sequence: LMEGCRA) was synthesized. To the wells coated with HRF was added each 30 μl of the peptide solution serially diluted in 6% BSA/PBS from 1000 nM (1000, 100, 10, 1, 0.1, 0.01, 0.001 nM) and the solution was allowed to stand at room temperature for 30 minutes. The 1/25-fold diluted phage solution was added thereto and the whole solution was further allowed to stand for 2 hours. The solution was washed five times with PBST and then, each 100 μl of HRP-conjugated anti-M13 antibodies were added thereto and then, the resulting mixture was allowed to stand for 1 hour. The mixture was washed 6 times with PBST and once with PBS, and thereto was added each 100 μl of peroxydase substrate solution to examine the competition.
# b) In order to test whether or not p1, p2 and p4 bind to the identical site on HRF, the wells were coated with HRF according to the substantially same procedure as in the above a).
# PC12 cells = assay: Inhibition of HRF-stimulated dopamine release by HRF-binding peptide; assay type: cell-based; conditions: 60 μg/ml of p2, 15 μg/ml of HRF
# Description: In order to confirm whether the peptides blocking histamine release by HRF also block neurotransmitters release in nerve cells, the peptide of SEQ ID No. 14 (p2) was tested for its effects on dopamine release stimulated by HRF according to the substantially same procedure as in Example 16.
# Sequence of malaria protein HRF (Q8I3Z5 whole entry): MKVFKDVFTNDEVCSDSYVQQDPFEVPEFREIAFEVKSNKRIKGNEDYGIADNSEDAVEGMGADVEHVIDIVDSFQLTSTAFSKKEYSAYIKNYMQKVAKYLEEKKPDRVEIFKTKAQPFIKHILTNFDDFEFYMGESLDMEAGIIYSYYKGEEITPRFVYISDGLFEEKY
Molecule,effect on histamine release by HRF (RBL-2H3 cells),also measured
C[C@@H]1CC[C@H]2[C@@H](C)C(=O)O[C@@H]3O[C@@]4(C)CC[C@@H]1[C@]32OO4 [Artemisinin],–,binding to malaria protein HRF (malaria protein HRF): binds to malaria protein HRF
"AYVYPSM (OTHER INFORMATION: IgE-dependent histamine-releasi ng factor binding peptide) [m1, p2 variant, alanine substitution]",inhibited histamine release by HRF,–
LVTYPLP (OTHER INFORMATION: IgE-dependent histamine-releasi ng factor binding peptide) [p1],inhibited histamine release by HRF,"binding site on HRF, competitive binding analysis on ph2 (HRF): bound to the identical site on HRF"
"WAVYPSM (OTHER INFORMATION: IgE-dependent histamine-releasi ng factor binding peptide) [m2, p2 variant, alanine substitution]",inhibited histamine release by HRF,–
WEFPGWM (OTHER INFORMATION: IgE-dependent histamine-releasi ng factor binding peptide) [p4],inhibited histamine release by HRF,"binding site on HRF, competitive binding analysis on ph2 (HRF): bound to the identical site on HRF; competition of synthetic peptide with phage clones for HRF (HRF): bind to HRF competitively with phage clones ph2 and ph4"
"WYAYPSM (OTHER INFORMATION: IgE-dependent histamine-releasi ng factor binding peptide) [m3, p2 variant, alanine substitution]",inhibited histamine release by HRF,–
"WYVAPSM (OTHER INFORMATION: IgE-dependent histamine-releasi ng factor binding peptide) [m4, p2 variant, alanine substitution]",inhibited histamine release by HRF,–
"WYVYKSM (OTHER INFORMATION: IgE-dependent histamine-releasi ng factor binding peptide) [m5, p2 variant, substituted with Lysine (K)]",inhibited histamine release by HRF,–
"WYVYPAM (OTHER INFORMATION: IgE-dependent histamine rele asing factor binding peptide) [m6, p2 variant, alanine substitution]",conversely stimulated histamine release,–
"WYVYPSA [m7, p2 variant, alanine substitution]",inhibited histamine release by HRF,–
WYVYPSM (OTHER INFORMATION: IgE-dependent histamine-releasi ng factor binding peptide) [p2],inhibited histamine release by HRF,"peptide concentration that inhibited histamine release (RBL-2H3 cells; dose-response, 20 μg/ml HRF): ≥ 0.01 µg/mL; inhibition of HRF-increased dopamine release (PC12 cells): about 60%; binding site on HRF, competitive binding analysis on ph2 (HRF): bound to the identical site on HRF; competition of synthetic peptide with phage clones for HRF (HRF): bind to HRF competitively with phage clones ph2 and ph4"
